Assay results taken from patent US12091426B2, “Bifunctional degraders of hematopoietic progenitor kinase and therapeutic uses thereof” (Nurix Therapeutics, Inc., priority 2021, dated 2024).

Biological target: T1, HPK1 (Homo sapiens, UniProt Q92918)
T1 construct: A HiBiT tag was introduced by CRISPR on the N terminus of HPK1 in Jurkat cells; host or cells: Jurkat cells (ATCC TIB-152), monoclonal line with CRISPR knock-in of HiBiT at the endogenous HPK1 locus
Assay: HPK1 Cellular HiBit Degradation Assay
Format: cell-based
Details: HiBiT HPK1 Jurkat cells, 24 hrs; for DC50: concentration at which 50% of HPK1 was remaining, read-out: DC50 Category; for Dmax: Jurkat, read-out: Dmax Category
In short: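 Jurkat cells with CRISPR N-terminal HiBiT-tagged endogenous HPK1 treated 24 h at 37 °C with 11-point, 3.16-fold dilutions (10 uM to 0.1 nM final). HiBiT lytic luminescence gives % HPK1 remaining versus DMSO, with parental cells as background. Four-parameter fit yields DC50; Dmax = 100 minus lowest % remaining.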

[1] = maximum degradation vs DMSO vehicle control

T1 sequence (Q92918 whole entry): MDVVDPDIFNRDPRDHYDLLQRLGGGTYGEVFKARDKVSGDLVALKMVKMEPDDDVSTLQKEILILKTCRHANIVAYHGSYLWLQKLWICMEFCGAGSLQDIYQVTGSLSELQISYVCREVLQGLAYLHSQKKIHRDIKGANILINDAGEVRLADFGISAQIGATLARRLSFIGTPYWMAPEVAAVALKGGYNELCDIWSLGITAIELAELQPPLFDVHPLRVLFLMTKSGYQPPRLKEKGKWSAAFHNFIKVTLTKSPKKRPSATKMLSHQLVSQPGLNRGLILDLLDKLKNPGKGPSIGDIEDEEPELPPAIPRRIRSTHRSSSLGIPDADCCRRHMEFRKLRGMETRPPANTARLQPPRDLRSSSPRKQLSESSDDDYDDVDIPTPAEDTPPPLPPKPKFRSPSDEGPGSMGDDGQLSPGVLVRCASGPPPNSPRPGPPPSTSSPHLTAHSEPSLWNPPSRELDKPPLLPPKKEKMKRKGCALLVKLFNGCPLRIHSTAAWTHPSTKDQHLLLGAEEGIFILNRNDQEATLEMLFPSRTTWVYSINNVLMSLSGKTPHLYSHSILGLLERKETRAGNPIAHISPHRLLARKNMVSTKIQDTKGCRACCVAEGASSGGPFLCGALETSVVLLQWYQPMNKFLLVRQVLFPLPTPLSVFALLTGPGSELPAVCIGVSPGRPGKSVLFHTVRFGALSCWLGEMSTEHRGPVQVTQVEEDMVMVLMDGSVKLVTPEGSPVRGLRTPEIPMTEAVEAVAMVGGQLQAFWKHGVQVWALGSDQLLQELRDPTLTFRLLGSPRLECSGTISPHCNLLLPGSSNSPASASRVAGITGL

Row | SMILES | DC50 | Dmax [1] | Dmax Category [1]
1 | CC(C)n1cnc2cc(-c3ccc4c(c3)N([C@H]3C[C@@H](N5CCCCC5)C3)C(=O)C43CCN(C(=O)CC4CCN(C(=O)[C@H]5CC[C@H](Oc6ccc(C7CCC(=O)NC7=O)cn6)CC5)CC4)CC3)nc(NC3CC3)c21 (stereo partly drawn) [Example 161, 3-(6-{[(1R,4R)-4-[4-(2-{6-[4-(cyclopropylamino)-3-(propan-2-yl)-3H-imidazo[4,5-c]pyridin-6-yl]-2-oxo-1-[(1S,3S)-3-(piperidin-1-yl)cyclobutyl]-1,2-dihydrospiro[indole-3,4′-piperidin]-1′-yl}-2-oxoethyl)piperidine-1-carbonyl]cyclohexyl]oxy}pyridin-3-yl)piperidine-2,6-dione] | < 100 nM | > 85% | 
2 | CC(C)n1cnc2cc(-c3ccc4c(c3)N([C@H]3C[C@@H](N5CCCCC5)C3)C(=O)C43CCN(C(=O)C4(C)CCN(C(=O)C5CCN(c6ccc([C@H]7CCC(=O)NC7=O)cn6)CC5)CC4)CC3)nc(NC3CC3)c21 (single isomer, unassigned) [Example 212] | < 100 nM |  | B (B: >70%-<85%)
3 | CC(C)n1cnc2cc(-c3ccc4c(c3)N([C@H]3C[C@@H](N5CCCCC5)C3)C(=O)C43CCN(C(=O)c4ccc(C(=O)NC5CCN(c6ccc7c(c6)C(=O)N(C6CCC(=O)NC6=O)C7=O)CC5)cc4)CC3)nc(NC3CC3)c21 (mixture of isomers) [Example 43, 4-({6-[4-(cyclopropylamino)-3-(propan-2-yl)-3H-imidazo[4,5-c]pyridin-6-yl]-2-oxo-1-[(1S,3S)-3-(piperidin-1-yl)cyclobutyl]-1,2-dihydrospiro[indole-3,4′-piperidin]-1′-yl}carbonyl)-N-(1-{2-[(3RS)-2,6-dioxopiperidin-3-yl]-1,3-dioxo-2,3-dihydro-1H-isoindol-5-yl}piperidin-4-yl)benzamide] | 500 to 1000 nM | 50 to 70% | 
4 | CC(C)n1cnc2cc(-c3ccc4c(c3)N([C@H]3C[C@@H](N5CCCCC5)C3)C(=O)C43CCN(C(=O)C4CCN(C(=O)[C@H]5CC[C@H](Cn6ncc7cc(C8CCC(=O)NC8=O)ccc76)CC5)CC4)CC3)nc(Nc3ccccc3F)c21 (mixture of isomers) [Example 64, (3RS)-3-(1-{[(1R,4R)-4-{4-[(6-{4-[(2-fluorophenyl)amino]-3-(propan-2-yl)-3H-imidazo[4,5-c]pyridin-6-yl}-2-oxo-1-[(1S,3S)-3-(piperidin-1-yl)cyclobutyl]-1,2-dihydrospiro[indole-3,4′-piperidin]-1′-yl)carbonyl]piperidine-1-carbonyl}cyclohexyl]methyl}-1H-indazol-5-yl)piperidine-2,6-dione] | < 100 nM | 70 to 85% | 
5 | CC(C)n1cnc2cc(-c3ccc4c(c3)N([C@H]3C[C@@H](N5CCCCC5)C3)C(=O)C43CCN(C(=O)C4CCN(C(=O)C5CCN(c6ccc(N7CCC(=O)NC7=O)cc6)CC5)CC4)CC3)nc(Nc3ccncc3F)c21 [Example 71, 1-[4-(4-{4-[(6-{4-[(3-Fluoropyridin-4-yl)amino]-3-(propan-2-yl)-3H-imidazo[4,5-c]pyridin-6-yl}-2-oxo-1-[(1S,3S)-3-(piperidin-1-yl)cyclobutyl]-1,2-dihydrospiro[indole-3,4′-piperidin]-1′-yl)carbonyl]piperidine-1-carbonyl}piperidin-1-yl)phenyl]-1,3-diazinane-2,4-dione] | < 100 nM | 70 to 85% | 
6 | CC(C)n1cnc2cc(-c3ccc4c(c3)N([C@H]3C[C@@H](N5CCCCC5)C3)C(=O)C43CCN(C(=O)[C@H]4CCN(C(=O)C5CCN(c6ccc(C7CCC(=O)NC7=O)cn6)CC5)C4)CC3)nc(Nc3ccccc3F)c21 (mixture of isomers) [Example 33, (3RS)-3-(6-{4-[(3S)-3-[(6-{4-[(2-fluorophenyl)amino]-3-(propan-2-yl)-3H-imidazo[4,5-c]pyridin-6-yl}-2-oxo-1-[(1S,3S)-3-(piperidin-1-yl)cyclobutyl]-1,2-dihydrospiro[indole-3,4′-piperidin]-1′-yl)carbonyl]pyrrolidine-1-carbonyl]piperidin-1-yl}pyridin-3-yl)piperidine-2,6-dione] | < 100 nM | 70 to 85% | 
